According to ChEMBL document CHEMBL1201862, “PubChem BioAssay data set” (2004):
Active and inactive are the calls of the source.

Legend:
[1] = target: Delta-type opioid receptor (Homo sapiens, UniProt P41143); assay: Counterscreen for agonists of heterodimerization of the mu 1 (OPRM1) and delta 1 (OPRD1) opioid receptors: Luminescence-based cell-based high throughput dose response assay to identify agonists of OPRD1 homodimerization. [Related pubchem assays (depositor defined):AID504326, AID504355, AID504692, AID504904, AID504905]; format: functional
Chain of Delta-type opioid receptor (P41143 whole entry): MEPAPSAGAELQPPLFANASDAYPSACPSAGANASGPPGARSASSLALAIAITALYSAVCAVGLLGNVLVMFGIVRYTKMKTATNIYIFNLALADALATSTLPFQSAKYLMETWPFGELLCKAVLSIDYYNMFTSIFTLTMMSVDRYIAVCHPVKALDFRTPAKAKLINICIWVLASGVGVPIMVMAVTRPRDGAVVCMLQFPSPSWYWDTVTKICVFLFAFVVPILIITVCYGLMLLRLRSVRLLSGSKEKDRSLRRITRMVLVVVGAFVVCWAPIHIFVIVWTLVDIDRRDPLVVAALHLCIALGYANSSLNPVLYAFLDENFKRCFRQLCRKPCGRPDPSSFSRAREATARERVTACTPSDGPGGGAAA

[2] = Luminescence Cell-Based Dose Retest to Confirm Inhibitors of Cancer Stem Cells. [Related pubchem assays (depositor defined):AID2717, AID2721]; format: functional; settings: Homo sapiens
[3] = target: T1, Corticotropin-releasing factor receptor 2/Corticotropin-releasing factor-binding protein (Homo sapiens, UniProt P24387+Q13324); assay: activators of CRF receptor 2 with binding protein – uHTS hits, confirmation (AID 602473); format: functional; settings: read-out: EC50_Mean
T1 sequence (Q13324 whole entry): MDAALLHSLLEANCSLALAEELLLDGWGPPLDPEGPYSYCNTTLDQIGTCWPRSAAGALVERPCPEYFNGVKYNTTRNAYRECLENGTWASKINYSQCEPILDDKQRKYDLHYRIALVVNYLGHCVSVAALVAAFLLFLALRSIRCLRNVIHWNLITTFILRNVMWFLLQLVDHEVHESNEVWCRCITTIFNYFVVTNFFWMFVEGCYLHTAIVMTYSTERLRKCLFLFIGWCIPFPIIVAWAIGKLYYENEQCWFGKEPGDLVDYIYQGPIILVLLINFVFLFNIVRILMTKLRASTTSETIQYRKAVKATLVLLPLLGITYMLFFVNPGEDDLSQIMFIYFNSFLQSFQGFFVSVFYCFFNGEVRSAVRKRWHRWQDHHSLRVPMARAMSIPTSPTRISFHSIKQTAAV
T1 sequence (P24387 whole entry): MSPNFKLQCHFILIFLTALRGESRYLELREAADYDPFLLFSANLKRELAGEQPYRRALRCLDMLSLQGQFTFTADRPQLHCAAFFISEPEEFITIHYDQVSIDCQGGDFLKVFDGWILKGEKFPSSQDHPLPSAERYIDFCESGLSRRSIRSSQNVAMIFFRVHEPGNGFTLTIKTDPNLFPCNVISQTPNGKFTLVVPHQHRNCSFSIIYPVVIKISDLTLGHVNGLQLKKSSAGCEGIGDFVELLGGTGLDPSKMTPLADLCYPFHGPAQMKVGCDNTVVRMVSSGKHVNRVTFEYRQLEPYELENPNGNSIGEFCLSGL

[4] = target: DNA (cytosine-5)-methyltransferase 1 (Homo sapiens, UniProt P26358); assay: DNMT1 methyltransferase inhibitors, confirmation, biochemical, fluorescent molecular beacon (AID 602386); format: functional
Chain of DNA (cytosine-5)-methyltransferase 1 (P26358 whole entry): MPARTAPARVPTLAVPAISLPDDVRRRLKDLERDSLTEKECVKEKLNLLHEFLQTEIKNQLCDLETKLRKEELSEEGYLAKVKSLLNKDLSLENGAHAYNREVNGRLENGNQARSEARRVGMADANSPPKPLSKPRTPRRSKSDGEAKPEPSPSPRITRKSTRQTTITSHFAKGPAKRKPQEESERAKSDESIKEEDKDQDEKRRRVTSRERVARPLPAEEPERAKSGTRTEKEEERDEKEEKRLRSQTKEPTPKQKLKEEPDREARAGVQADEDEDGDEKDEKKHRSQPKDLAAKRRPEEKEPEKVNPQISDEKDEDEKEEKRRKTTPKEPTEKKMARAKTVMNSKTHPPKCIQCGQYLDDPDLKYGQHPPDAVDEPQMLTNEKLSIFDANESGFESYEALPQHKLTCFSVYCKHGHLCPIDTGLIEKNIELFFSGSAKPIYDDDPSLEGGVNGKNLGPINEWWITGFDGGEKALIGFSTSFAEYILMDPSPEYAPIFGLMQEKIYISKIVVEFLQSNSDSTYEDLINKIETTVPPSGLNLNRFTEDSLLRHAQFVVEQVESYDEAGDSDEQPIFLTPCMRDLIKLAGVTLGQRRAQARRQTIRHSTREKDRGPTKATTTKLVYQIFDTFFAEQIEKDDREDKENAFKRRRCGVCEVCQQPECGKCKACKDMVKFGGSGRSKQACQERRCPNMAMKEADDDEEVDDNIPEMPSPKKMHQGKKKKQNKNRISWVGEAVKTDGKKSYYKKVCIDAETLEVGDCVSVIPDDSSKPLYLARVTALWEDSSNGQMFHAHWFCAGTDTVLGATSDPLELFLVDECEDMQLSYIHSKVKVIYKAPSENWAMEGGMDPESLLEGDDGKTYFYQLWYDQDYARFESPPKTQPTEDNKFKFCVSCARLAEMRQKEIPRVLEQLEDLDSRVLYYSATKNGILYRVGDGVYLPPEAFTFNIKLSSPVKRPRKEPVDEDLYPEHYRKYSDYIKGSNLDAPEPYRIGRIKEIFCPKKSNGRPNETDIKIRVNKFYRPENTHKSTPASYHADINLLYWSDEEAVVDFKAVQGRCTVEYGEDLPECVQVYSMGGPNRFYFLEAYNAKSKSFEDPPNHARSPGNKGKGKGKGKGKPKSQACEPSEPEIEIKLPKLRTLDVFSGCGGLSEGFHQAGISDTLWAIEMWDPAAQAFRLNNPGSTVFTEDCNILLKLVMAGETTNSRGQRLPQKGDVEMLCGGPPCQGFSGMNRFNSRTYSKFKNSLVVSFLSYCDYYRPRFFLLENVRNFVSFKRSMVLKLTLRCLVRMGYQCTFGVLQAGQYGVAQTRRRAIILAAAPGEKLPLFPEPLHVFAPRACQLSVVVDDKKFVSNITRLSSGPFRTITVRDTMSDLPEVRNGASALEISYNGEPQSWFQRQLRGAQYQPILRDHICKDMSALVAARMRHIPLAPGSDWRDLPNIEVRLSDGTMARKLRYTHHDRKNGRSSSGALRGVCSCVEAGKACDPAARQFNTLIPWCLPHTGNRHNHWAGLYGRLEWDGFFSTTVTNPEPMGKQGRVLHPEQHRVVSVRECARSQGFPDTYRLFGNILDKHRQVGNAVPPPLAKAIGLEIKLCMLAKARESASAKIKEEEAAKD

[5] = target: 5-hydroxytryptamine receptor 5A (Homo sapiens, UniProt P47898); assay: Counterscreen for agonists of OPRM1-OPRD1 heterodimerization: luminescence-based cell-based high throughput dose response assay to identify agonists of 5-hydroxytryptamine (serotonin) 5A receptor (HTR5A). [Related pubchem assays (depositor defined):AID504326, AID504355, AID504692, AID504904, AID504905]; format: functional
Chain of 5-hydroxytryptamine receptor 5A (P47898 whole entry): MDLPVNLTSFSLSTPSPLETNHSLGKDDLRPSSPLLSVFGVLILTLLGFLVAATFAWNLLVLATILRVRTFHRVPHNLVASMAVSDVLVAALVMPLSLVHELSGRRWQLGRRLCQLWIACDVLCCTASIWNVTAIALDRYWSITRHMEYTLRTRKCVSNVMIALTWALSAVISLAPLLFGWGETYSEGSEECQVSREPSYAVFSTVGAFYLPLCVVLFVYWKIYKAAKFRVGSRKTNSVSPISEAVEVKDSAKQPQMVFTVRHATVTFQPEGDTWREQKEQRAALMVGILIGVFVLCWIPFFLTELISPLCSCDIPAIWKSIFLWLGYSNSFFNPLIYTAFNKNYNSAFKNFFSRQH

Mu-type opioid receptor = Mu-type opioid receptor (Homo sapiens, UniProt P35372); assay: Counterscreen for agonists of heterodimerization of the mu 1 (OPRM1) and delta 1 (OPRD1) opioid receptors: Luminescence-based cell-based high throughput dose response assay to identify agonists of OPRM1 homodimerization.; format: functional;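 also: U2OS cells expressing OPRM1 and beta-arrestin as split beta-galactosidase partners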
Chain of Mu-type opioid receptor (P35372 whole entry): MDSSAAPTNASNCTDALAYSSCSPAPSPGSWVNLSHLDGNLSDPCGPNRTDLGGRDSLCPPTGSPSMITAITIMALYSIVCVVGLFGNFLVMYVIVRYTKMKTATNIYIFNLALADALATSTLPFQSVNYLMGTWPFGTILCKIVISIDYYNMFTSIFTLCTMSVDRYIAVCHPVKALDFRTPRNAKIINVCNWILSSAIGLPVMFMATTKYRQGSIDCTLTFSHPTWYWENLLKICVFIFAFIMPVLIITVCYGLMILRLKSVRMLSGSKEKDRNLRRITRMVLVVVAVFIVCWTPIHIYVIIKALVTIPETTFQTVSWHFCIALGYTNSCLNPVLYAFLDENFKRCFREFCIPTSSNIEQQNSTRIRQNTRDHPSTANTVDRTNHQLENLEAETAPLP

[6] = target: T2, High affinity choline transporter 1 (Homo sapiens, UniProt Q9GZV3); assay: CHT inhibitors, dose response, cell-based, 10-point CRC, membrane potential dye (AID 588401); format: functional;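 also: membrane potential dye fluorescence of choline-evoked depolarization via CHT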
T2 sequence (Q9GZV3 whole entry): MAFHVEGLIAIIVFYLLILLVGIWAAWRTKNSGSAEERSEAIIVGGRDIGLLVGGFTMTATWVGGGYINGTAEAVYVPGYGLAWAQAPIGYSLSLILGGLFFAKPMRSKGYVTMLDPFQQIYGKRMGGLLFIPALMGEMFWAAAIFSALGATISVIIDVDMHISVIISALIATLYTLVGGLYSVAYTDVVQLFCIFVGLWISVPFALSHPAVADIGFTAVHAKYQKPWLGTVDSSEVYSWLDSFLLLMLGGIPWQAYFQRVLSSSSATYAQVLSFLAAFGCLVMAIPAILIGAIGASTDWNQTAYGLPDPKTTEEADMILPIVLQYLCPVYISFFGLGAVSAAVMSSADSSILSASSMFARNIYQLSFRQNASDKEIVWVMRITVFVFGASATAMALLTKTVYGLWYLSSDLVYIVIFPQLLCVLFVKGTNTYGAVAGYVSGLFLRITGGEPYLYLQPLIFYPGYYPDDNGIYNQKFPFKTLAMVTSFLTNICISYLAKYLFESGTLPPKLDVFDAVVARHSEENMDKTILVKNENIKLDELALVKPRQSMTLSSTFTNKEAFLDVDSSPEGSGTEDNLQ

[7] = target: T2, High affinity choline transporter 1; assay: CHT inhibitors, dose response, cell-based, 5-point CRC, membrane potential dye (AID 504840); format: functional
[8] = target: 72 kDa type IV collagenase (Homo sapiens, UniProt P08253); assay: Dose Response validation of uHTS RPN11 inhibitor hits using a MMP-2 Fluorescence assay.; format: functional
Prothrombin = Prothrombin (Bos taurus, UniProt P00735); assay: thrombin inhibition, dose response, biochemical, fluorescence polarization, uHTS hits (AID 602369); format: functional
[9] = target: 26S proteasome non-ATPase regulatory subunit 14 (Homo sapiens, UniProt O00487); assay: inhibition of proteasome subunit RPN11 – biochemical, fluorescence polarization, uHTS hits, confirmation (AID 602368); format: functional
Escherichia coli [10] = assay: microbe, parasite or virus in culture
Escherichia coli [11] = assay: microbe, parasite or virus in culture; remark: listed apart in the source
[12] = target: Ras and Rab interactor 1/Tyrosine-protein kinase ABL1 (Homo sapiens, UniProt P00519+Q13671); format: functional;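 also: biochemical TR-FRET dose-response test measuring inhibition of binding between Rin1 and Abl proteins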
Chain of Ras and Rab interactor 1/Tyrosine-protein kinase ABL1 (P00519 whole entry): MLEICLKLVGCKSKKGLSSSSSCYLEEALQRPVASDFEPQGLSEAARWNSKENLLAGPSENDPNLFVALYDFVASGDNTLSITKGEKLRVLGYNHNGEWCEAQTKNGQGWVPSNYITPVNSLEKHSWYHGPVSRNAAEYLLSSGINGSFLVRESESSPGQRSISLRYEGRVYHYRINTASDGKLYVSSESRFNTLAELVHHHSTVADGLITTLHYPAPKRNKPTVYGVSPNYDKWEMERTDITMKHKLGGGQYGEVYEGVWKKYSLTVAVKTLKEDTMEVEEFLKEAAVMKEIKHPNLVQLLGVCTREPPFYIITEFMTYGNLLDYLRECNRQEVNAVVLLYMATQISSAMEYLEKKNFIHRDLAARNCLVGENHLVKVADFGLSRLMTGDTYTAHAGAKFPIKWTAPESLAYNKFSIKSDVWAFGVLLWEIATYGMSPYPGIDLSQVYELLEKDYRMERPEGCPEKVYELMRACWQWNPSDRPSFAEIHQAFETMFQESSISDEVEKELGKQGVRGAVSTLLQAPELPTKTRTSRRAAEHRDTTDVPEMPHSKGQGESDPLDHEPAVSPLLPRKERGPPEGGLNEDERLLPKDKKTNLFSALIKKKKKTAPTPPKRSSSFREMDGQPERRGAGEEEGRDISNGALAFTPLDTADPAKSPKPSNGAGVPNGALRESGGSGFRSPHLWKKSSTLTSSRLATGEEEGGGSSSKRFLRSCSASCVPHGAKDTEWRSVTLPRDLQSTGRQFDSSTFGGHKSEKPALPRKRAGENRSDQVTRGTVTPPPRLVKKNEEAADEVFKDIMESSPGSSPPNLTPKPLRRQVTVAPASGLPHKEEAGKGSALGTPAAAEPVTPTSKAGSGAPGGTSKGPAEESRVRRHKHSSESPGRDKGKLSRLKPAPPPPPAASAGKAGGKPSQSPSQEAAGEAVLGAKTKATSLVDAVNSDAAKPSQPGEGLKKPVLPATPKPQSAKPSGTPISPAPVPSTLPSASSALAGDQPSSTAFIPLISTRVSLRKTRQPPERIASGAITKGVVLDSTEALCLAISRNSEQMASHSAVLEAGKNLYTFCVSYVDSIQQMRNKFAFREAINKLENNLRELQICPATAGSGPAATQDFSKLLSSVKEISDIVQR
Chain of Ras and Rab interactor 1/Tyrosine-protein kinase ABL1 (Q13671 whole entry): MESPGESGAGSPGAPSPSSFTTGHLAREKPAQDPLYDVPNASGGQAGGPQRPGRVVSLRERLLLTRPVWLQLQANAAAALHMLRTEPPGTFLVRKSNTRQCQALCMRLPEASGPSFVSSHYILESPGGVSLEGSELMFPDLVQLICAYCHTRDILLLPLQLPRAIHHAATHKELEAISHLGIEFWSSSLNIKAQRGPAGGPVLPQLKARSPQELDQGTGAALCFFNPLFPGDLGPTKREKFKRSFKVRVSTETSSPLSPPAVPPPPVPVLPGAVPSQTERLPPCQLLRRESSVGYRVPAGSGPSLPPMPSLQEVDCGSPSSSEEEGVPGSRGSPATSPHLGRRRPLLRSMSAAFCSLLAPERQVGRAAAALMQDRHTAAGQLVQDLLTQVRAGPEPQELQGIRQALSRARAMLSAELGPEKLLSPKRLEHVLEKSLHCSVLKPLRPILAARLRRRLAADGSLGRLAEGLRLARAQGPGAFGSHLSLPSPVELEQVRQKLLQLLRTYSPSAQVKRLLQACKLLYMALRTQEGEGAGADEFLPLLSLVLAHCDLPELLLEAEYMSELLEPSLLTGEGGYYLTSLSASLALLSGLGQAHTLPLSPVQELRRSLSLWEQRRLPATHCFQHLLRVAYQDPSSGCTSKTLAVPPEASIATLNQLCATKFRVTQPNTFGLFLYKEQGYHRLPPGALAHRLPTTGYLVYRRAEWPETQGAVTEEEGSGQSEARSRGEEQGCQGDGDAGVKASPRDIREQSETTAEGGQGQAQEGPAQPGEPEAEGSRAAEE

[13] = target: Apoptotic protease-activating factor 1 (Homo sapiens, UniProt O14727); assay: SAR analysis of small molecule Activators of Apaf-1 in a Fluorescent assay.; format: functional; settings: read-out: EC50_Mean;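 also: caspase-3 cleavage of fluorogenic Rh110 DEVD substrate downstream of apoptosome activation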
[14] = growth suppression of beta-catenin-knockout colon cells, dose response, cell-based, HCT116, human colon tumor (AID 1045); format: functional;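 also: HCT116 colon tumor cells with beta catenin knocked out; cells exposed to compound for 60 hours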
[15] = growth suppression of PTEN-null colon cells, dose response, cell-based, HCT116 PTEN knockout (AID 1047); format: functional;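 also: HCT116 colon tumor cells with PTEN knocked out; cells exposed to compound for 60 hours before readout; potency for loss of cell viability measured by luminescence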
Cysteine protease ATG4B = Cysteine protease ATG4B (Homo sapiens, UniProt Q9Y4P1); format: functional;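 also: Fluorescence-based dose-response confirmation assay measuring inhibition of ATG4B activity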
Phospholipase A2 = Phospholipase A2 (Homo sapiens, UniProt P04054); format: functional;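 also: confirmatory dose-response counterscreen on phospholipase A2, testing hits that came from an ultra-high-throughput screen for ATG4B inhibitors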
Chain of Phospholipase A2 (P04054 whole entry): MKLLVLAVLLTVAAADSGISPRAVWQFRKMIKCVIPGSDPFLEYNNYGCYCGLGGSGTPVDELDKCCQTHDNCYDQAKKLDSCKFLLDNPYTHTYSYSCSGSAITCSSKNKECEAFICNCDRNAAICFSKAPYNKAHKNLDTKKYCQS

Which results are given for `COc1ccc(NS(=O)(=O)c2ccc(O)c(NC(=O)c3cc4c(C)nn(-c5ccc(F)cc5)c4s3)c2)cc1`?
EC50 [1]: > 92.5 µM (inactive); AC50 [2]: 2.11 µM (active); EC50 [3]: > 53 µM (inactive); IC50 [4]: 6.92 µM (active); EC50 [5]: > 92.5 µM (inactive); EC50 (Mu-type opioid receptor): > 92.5 µM (inactive)

Which results are given for `CCN(CC)CCCNC(=O)c1ccccc1NC(=O)C1=CSCCO1`?
IC50 [6]: 3.57 µM (active); IC50 [7]: 4.48 µM (active)

For `CN(C)CCCN/C=C1\C(=O)NC(=O)N(CCc2ccccc2)C1=O`, which IC50 [8] is on record?
The IC50 was > 100 µM (inactive).

What about the IC50 (Prothrombin) of the same compound?
The IC50 was 35.1 µM (active).

What about the IC50 [9] of the same compound?
The IC50 was 28.7 µM (active).

Which results are given for `CCc1ccccc1NC(=O)CNC1CCCCC1.[O-][Cl+3]([O-])([O-])O`?
AC50 (Escherichia coli [10]): 76.7 µM (active); AC50 (Escherichia coli [11]): 22.6 µM (active)

With `CCOC(=O)CCCCCC(=O)Nc1ccc2c(c1)CC(=O)N([C@H](C)CO)C[C@@H](C)[C@H](CN(C)Cc1ccc3c(c1)OCO3)O2` as the compound, how does the IC50 [12] read?
Its IC50 is 30.8 µM (inactive).

With `CCCCCCC1CC(Cc2c(C)[nH]c3ccccc23)C(=O)O1` (configuration not stated) as the compound, how does the EC50 [13] read?
Its EC50 is > 100 µM (inactive).

Which EC50 [1] does the source give for `COc1ccc2[nH]c3c(=O)n(/N=C/[C@H]4C(C)C=C(C)CC4C)c(=O)[nH]c3c2c1` (some centres not stated) here?
Its EC50 is > 92.5 µM (inactive).

And the EC50 [14]?
Its EC50 is 35.4 µM (active).

What about the EC50 [5] of the same compound?
Its EC50 is > 92.5 µM (inactive).

What about the EC50 [15] of the same compound?
Its EC50 is 30.5 µM (active).

And the EC50 (Mu-type opioid receptor)?
Its EC50 is > 92.5 µM (inactive).

With `O=C(O)c1cc(N/N=C2/CC(c3ccccc3)Oc3ccccc32)ccc1Cl` (configuration not stated) as the compound, how does the IC50 (Cysteine protease ATG4B) read?
The IC50 was 7.53 µM (active).

And the IC50 (Phospholipase A2)?
Its IC50 is 7.77 µM (active).
